# Where two headings read alike, the source gives them in different places.
# Key:
# [1] = DPPH radical scavenging assay; format: biochemical; details: for Mean IC50 for scavenging initial DPPH radicals: mean ± SD of three replicates; for IC50: mean ± SD, converted from mg/mL, read-out: Mean IC50 for scavenging initial DPPH radicals (converted)
# From the text: In principle, the antioxidant power of a compound in this assay is correlated to its tendency to reduce the stable, purple-colored DPPH radical through a hydrogen atom transfer (HAT) mechanism and/or a single electron transfer mechanism, thereby converting it to the yellow-colored 2,2-diphenyl-1-picrylhydrazine, whereby this reduction is accompanied by a depletion in the amount of the initial DPPH radicals and a change in the absorbance of the test solution accordingly, which can be detected relative to the blank solution at λ = 517 nm.
# The antioxidant potencies of all synthesized compounds were investigated using a 1,1 diphenyl-2-picrylhydrazyl (DPPH) radical scavenging assay according to the protocol described by Bersuder et al.. In brief, a 0.5 mL volume of DPPH ethanolic solution was mixed with an equal volume of each sample concentration (i.e., the test compound or butylated hydroxytoluene, BHT, which was used as the reference antioxidant in the positive control experiment), shaken strongly, and incubated at room temperature for 1 h in darkness. The absorbance of the residual DPPH radicals was measured at λ = 519 nm and compared to the negative control (without the test compound or reference antioxidant). The DPPH radical scavenging power was calculated using the following formula: scavenging efficiency (%) = (1 − Acompound/AControl) × 100, where Acompound and Acontrol are the absorbance of the tested compound and the negative control, respectively. […] Additionally, the ± SD values were calculated from three independent triplicate measurements.
# [2] = tested on: LoVo human colon carcinoma cells; experiment: Viability assay (LDH release), LoVo; format: cell-based; details: for viability at 200 µg/mL: Homo sapiens, LoVo, 48 h, read-out: Mean % of viable cells ± SD, LoVo
# Protocol: (§1) The anticancer activities of all the synthesized compounds were assessed against two human colon carcinoma cell lines, namely LoVo and HCT-116 (Table 6), via the determination of the mean percents of the viable cancerous cells remaining after being incubated with 200 µg/mL of each test compound for 48 h using LDH assay.
# (§2) The samples were diluted in Dulbecco’s Modified Eagle’s Medium, consisting of 10% fetal bovine serum (FBS), added to cells grown and cultured for 24 h in a 5% CO2-humidified incubator at 37 °C. Thereafter, the activity of lactate dehydrogenase released from damaged cells was determined in the collected supernatant aliquots using an ELISA end-point assay (Benchmark Plus, Bio-Rad, CA, USA); 0.1% Triton X-100 in the assay medium and the assay medium only were used as the positive and negative controls, respectively. Cell viability was expressed as a relative percentage of the OD values (at 550 nm) for compound-treated cells (final concentration of 200 µg /mL) and the negative control, which was shown as the mean % ± SD (n = 3). The results of the viability assays for the potential cytotoxic candidates were compared with the % of viable human umbilical vein endothelial cells (HUVEC) at the same concentration. These cells were grown in Dulbecco’s Modified Eagle’s Medium (PAN-Biotech; Barcelona, Spain) containing 10% FBS (Sigma Aldrich; St. Quentin-Fallavier, France), 2 mM Glutamine (Sigma Aldrich), 100 units/mL penicillin and […] streptomycin (Life Technologies; Paisley, UK).
# [3] = tested on: HCT-116 human colon carcinoma cells; experiment: Viability assay (LDH release), HCT-116; format: cell-based; details: for viability at 200 µg/mL: Homo sapiens, read-out: Mean % of viable cells ± SD, HCT-116
# Protocol: as §1, §2
# [4] = molecular target: purified recombinant human LDHA protein (Homo sapiens, UniProt P00338); experiment: Lactate dehydrogenase A (LDHA) inhibitory assay; format: biochemical; details: for Fold change of LDHA inhibition as compared to 0.1 mg/mL: % inhibition at 0.200 mg/mL divided by % inhibition at 0.100 mg/mL; for inhibition at 100 µg/mL: at 0.1 mg/mL; for inhibition at 100 µg/mL / inhibition at 200 µg/mL: read-out: LDHA mean % inhibition ± SD; for inhibition at 200 µg/mL: at 0.2 mg/mL
# Protocol: The LDHA inhibitory effectiveness was investigated by measuring the amounts of consumed NADH [73]. […] The fluorescence of NADH, which has an excitation wavelength of 340 nm and an emission wavelength of 460 nm, was detected using a spectrofluorometer. […] The LDHA inhibitory efficiency was expressed as an inhibition percentage, which was determined via a comparison with the negative control experiments.
# [5] = molecular target: α-amylase; experiment: In vitro α-amylase (AA) inhibition assay; details: mean ± SD of three replicates; for IC50: read-out: Mean IC50 α-Amylase (AA)
# Protocol: Then, 180 µL of Labtest (the amylase substrate) was added and the samples were incubated for 8 min, followed by measuring the first reaction at 620 nm to obtain (X1). Afterwards, the reaction mixture was incubated for an additional 5 min at 37 °C; then, the second reaction was measured to obtain the final reading (X2). […] The results were expressed as IC50 µg/mL (as well as µM) and were determined from the standard curves.
# [6] = molecular target: T1, COX-2 (Homo sapiens, UniProt P35354); experiment: COX-2 inhibitory screening assay (Cayman kit); format: biochemical; details: for Increase in COX-2 inhibitory efficiency by duplicating the concentration: % inhibition at 0.200 mg/mL divided by % inhibition at 0.100 mg/mL; for inhibition at 100 µg/mL: at 0.100 mg/mL; for inhibition at 100 µg/mL / inhibition at 200 µg/mL: read-out: COX-2 mean % inhibition ± SD; for inhibition at 200 µg/mL: at 0.200 mg/mL
# T1 construct: purchased Cayman Chemical Company 701080
# T1 sequence (P35354 18-604): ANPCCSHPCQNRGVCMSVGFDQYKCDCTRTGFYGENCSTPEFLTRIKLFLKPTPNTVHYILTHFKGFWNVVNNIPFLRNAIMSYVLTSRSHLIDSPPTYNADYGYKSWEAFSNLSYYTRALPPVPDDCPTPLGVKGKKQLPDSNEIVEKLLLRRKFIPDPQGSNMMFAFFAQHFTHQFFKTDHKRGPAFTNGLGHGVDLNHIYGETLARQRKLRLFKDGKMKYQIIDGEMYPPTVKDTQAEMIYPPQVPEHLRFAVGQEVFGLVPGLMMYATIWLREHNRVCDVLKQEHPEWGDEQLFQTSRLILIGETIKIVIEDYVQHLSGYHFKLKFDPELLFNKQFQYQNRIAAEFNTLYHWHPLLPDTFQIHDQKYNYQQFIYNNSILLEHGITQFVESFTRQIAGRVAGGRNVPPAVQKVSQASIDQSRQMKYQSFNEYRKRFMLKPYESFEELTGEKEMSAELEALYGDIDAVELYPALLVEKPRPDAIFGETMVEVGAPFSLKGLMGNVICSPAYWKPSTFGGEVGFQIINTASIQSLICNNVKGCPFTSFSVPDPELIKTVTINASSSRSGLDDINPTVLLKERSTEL
# Protocol: Each compound of the two series, 3a–h and 5a–h, was resuspended in 100% DMSO at a final concentration of 10 mg/mL. […] Briefly, 10 µL of the tested compound was added to a mixture of the reaction buffer solution (160 µL of 0.1 M Tris-HCl, pH 8.0, in the presence of 2 mM phenol and 5 mM EDTA), COX-2 (10 µL) and heme (10 µL). After a 10 min incubation at 37 °C, the reaction was started by adding arachidonic acid (10 µL), rapidly mixed and kept at 37 °C for 2 min. PGF2α generated via PGH2 reduction with stannous chloride (30 µL) was incubated at room temperature for 5 min. The PGF2α amount was then determined via an enzyme immunoassay. Prior to incubation with the COX-2 reaction (at room temperature 18 h), the 96-well plate was previously coated with a mouse anti-rabbit monoclonal antibody. Unbound reagents were removed by washing the plate followed by adding Ellman’s reagent to the well. The reaction product displaying a distinct yellow color was measured at 410 nm using a UV microplate reader. The % inhibition was calculated by comparing the PGF2α produced in the compound-treated samples with a control sample, using the following equation: % inhibition is equal to [([PGF2α]control − [PGF2α]sample) /[PGF2α ]control ] × 100. […] The COX-2 inhibitory efficiency was expressed as an inhibition percentage, which was determined via a comparison with the negative control experiments.
Molecule,Mean IC50 for scavenging initial DPPH radicals [1],IC50 [1],viability at 200 µg/mL [2],"viability at 200 µg/mL ([3]; HCT-116, 48 h)",Fold change of LDHA inhibition as compared to 0.1 mg/mL [4],inhibition at 100 µg/mL [4],inhibition at 200 µg/mL [4],Mean IC50 α-Amylase (AA) [5],IC50 [5],Increase in COX-2 inhibitory efficiency by duplicating the concentration [6],inhibition at 100 µg/mL [6],inhibition at 200 µg/mL [6],viability at 200 µg/mL ([2]; 200 µg/mL),"viability at 200 µg/mL ([3]; HCT-116, 200 µg/mL, 48 h)","Mean % of viable cells, LoVo ([2]; positive control, 0.1%)","Mean % of viable cells, HCT-116 ([3]; positive control, 0.1%)"
"O=c1c2cc(Br)ccc2nc(SCc2cccc([N+](=O)[O-])c2)n1-c1ccc([N+](=O)[O-])cc1 [Compound 5g, 2-(3-Nitro-benzylsulfanyl)-6-bromo-3-(4-nitro-phenyl)-3H-quinazolin-4-one]",200 ± 14 µg/mL,390 µM,74.7 ± 2.52%,66.3 ± 3.06%,1.75 fold,15.8 ± 2.05%,27.7 ± 2.55%,339.000 ± 4.000 µg/mL,660 µM,1.83 fold,14.2 ± 1.77%,26 ± 2.83%,–,–,–,–
"Cc1cc(C(C)(C)C)c(O)c(C(C)(C)C)c1 [BHT, butylated hydroxy toluene, reference compound]",54 ± 6 µg/mL,245 µM,–,–,–,–,–,–,–,–,–,–,–,–,–,–
"COc1cc2nc(SCc3cccc([N+](=O)[O-])c3)n(-c3cccc(C(F)(F)F)c3)c(=O)c2cc1OC [Compound 5c, 2-(3-Nitrobenzylsulfanyl)-6,7-dimethoxy-3(3-trifluoromethyl-phenyl)-3H-quinazolin-4-one]",186 ± 6 µg/mL,359 µM,–,–,1.67 fold,8.55 ± 1.06%,14.3 ± 1.56%,197.333 ± 4.509 µg/mL,381 µM,1.41 fold,18.6 ± 3.46%,26.2 ± 4.03%,78.3 ± 3.51%,82.3 ± 2.52%,–,–
"COc1cc2[nH]c(=S)n(-c3ccc([N+](=O)[O-])cc3)c(=O)c2cc1OC [Compound 3h, 6,7-Dimethoxy-3-(4-nitro-phenyl)-2-thioxo-2,3-dihydro-1H-quinazolin-4-one]",325 ± 7 µg/mL,904 µM,64 ± 3%,70.3 ± 3.79%,1.47 fold,29.9 ± 1.77%,43.9 ± 1.56%,122.000 ± 4.583 µg/mL,339 µM,1.900 fold,14.6 ± 0.636%,27.6 ± 2.19%,–,–,–,–
Triton X-100 [reference compound],–,–,–,–,–,–,–,–,–,–,–,–,–,–,0.000%,0.000%
"COc1ccc(Br)c(CSc2nc3ccc(Cl)cc3c(=O)n2-c2ccc([N+](=O)[O-])cc2)c1 [Compound 5f, 2-(2-Bromo-5-methoxy-benzylsulfanyl)-6-chloro-3-(4-nitro-phenyl)-3H-quinazolin-4-one]",241 ± 13 µg/mL,452 µM,–,–,1.60 fold,31.9 ± 2.48%,51 ± 3.61%,106.667 ± 5.033 µg/mL,200 µM,1.80 fold,28.9 ± 2.69%,52 ± 2.83%,84.3 ± 3.51%,76 ± 1.73%,–,–
"O=c1c2cc(Br)ccc2[nH]c(=S)n1-c1ccc(C(F)(F)F)cc1 [Compound 3e, 6-Bromo-2-thioxo-3-(4-trifluoromethyl-phenyl)-2,3-dihydro-1H-quinazolin-4-one]",290 ± 28 µg/mL,723 µM,90.7 ± 3.51%,92.3 ± 2.52%,1.62 fold,22.1 ± 1.2%,36 ± 1.34%,252.00 ± 4.583 µg/mL,628 µM,1.50 fold,10.4 ± 1.7%,15.7 ± 0.495%,–,–,–,–
"O=c1c2cc(Cl)ccc2[nH]c(=S)n1-c1ccc(C(F)(F)F)cc1 [Compound 3d, 6-Chloro-2-thioxo-3-(4-trifluoromethyl-phenyl)-2,3-dihydro-1H-quinazolin-4-one]",179 ± 16 µg/mL,502 µM,87 ± 1.73%,96 ± 1.73%,1.59 fold,33.5 ± 2.12%,53.5 ± 2.12%,335.667 ± 3.055 µg/mL,941 µM,1.62 fold,20.2 ± 1.13%,32.8 ± 2.48%,–,–,–,–
"O=c1c2cc(Br)ccc2[nH]c(=S)n1-c1cccc(C(F)(F)F)c1 [Compound 3b, 6-Bromo-2-thioxo-3-(3-trifluoromethyl-phenyl)-2,3-dihydro-1H-quinazolin-4-one]",–,–,62 ± 3.61%,70.7 ± 2.52%,1.45 fold,29.1 ± 2.19%,42.4 ± 1.91%,–,427 µM,1.72 fold,6.25 ± 1.77%,10.8 ± 2.48%,–,–,–,–
